Data: US5545669A, “Anti-inflammatory compounds” (priority 1994, dated 1996)

How the values were obtained:
Format in all cases: cell-based
[1] = test system: PGE2 release by human monocytes; assay: Assay (f): stimulated eicosanoid release by human monocytes, Prostaglandin E2; conditions: Monocyte, 0.25 h, A23187 1 μM, 15 min
Experimental: Human Monocyte Isolation. Leukocyte-rich leukopaks obtained from Biological Specialties (Lansdale, Pa.) were collected from male volunteers who were not taking antiinflammatory drugs. Leukopaks were centrifuged (90×g for 15 min) twice to remove the platelet-rich plasma. The cell pellet was washed by centrifugation and resuspended in HBSS without Ca^2+ or Mg^2+. Histopaque 1077 was layered under the cell suspension and centrifuged at 400×g for 30 min to obtain the buffy coat. The interfacial buffy coat, containing monocytes and lymphocytes, was removed and saved. The buffy coat was washed twice with HBSS Without Ca^2+ or Mg^2+ by centrifugation. The cell pellet (4-6×10^8 cells/30 mls) was resuspended in iso-osmotic media (RPMI-1640, 10% heat inactivated fetal bovine serum (FBS), 0.2 mM L-glutamine, 2.5 mM HEPES) and layered over an equal volume of 46% Percol mixture (10X PBS/Percol; 9.25/0.75) and 54% iso-osmotic media and centrifuged for 30 min at 1000×g (Marshall and Roshak, Biochem. Cell Biol. 71: 331-339, 1993). The monocyte population located at the interface of the Percoll gradient was removed and washed twice in HBSS without Ca^2+ or Mg^2+.
Measurement of Stimuli-Induced Eicosanoid Release Monocytes (5×10^6 /ml) were incubated as a suspension in serum-free RPMI-1640 medium containing the vehicle DMSO (<1%) or drug for 30 min at 27° C. after which vehicle or stimuli was added for the indicated time. The stimulating agent is solubilized in DMSO and appropriate vehicle controls were included in all experiments. The amount of stimuli was chosen from the linear portion of a concentration versus product curve usually representing 60-80% maximal stimulation over the indicated incubation time at 37° C. (A23187, 1 μM,(15 min). The reaction was terminated by reduction of pH through addition of citric acid and centrifugation (10 min, 400×g, 4° C.). Cell viability was monitored before and after experiments using trypan blue exclusion. The cell-free media was decanted and stored at -70° C. until analyzed. Prostaglandin E2 and LTC4 were directly measured in cell-free media using enzyme immunoassay (EIA) kits purchased from Caymen Chemical Co. (Ann Arbor, Mich.). Sample or standard dilutions were made with appropriate media and analyzed in triplicate. Results were obtained by extrapolation from a standard curve prepared in the media and expressed as pg or ng/ml of sample.

[2] = test system: human neutrophils; assay: Assay (e): mobilization of labeled arachidonic acid into 1-ether phospholipids in intact cells; conditions: non-stimulated human neutrophils, 2 hrs
Experimental: Measurement of the effect of CoA-IT inhibitors on the transfer of [^3 H]arachidonate into 1-ether phospholipids in non-stimulated inflammatory cells can be accomplished by general application of the following specific method. Human neutrophils were isolated and resuspended (5×10^7 /ml) in Hanks Balanced Salt Solution (HBSS; Gibco). [5,6,8,9,11,12,14,15-^3 H]-Arachidonic acid (100 Ci/mmol; New England Nuclear) complexed to 200 μl HBSS containing 0.25 mg/ml HSA was added to the cell suspension (1 μCi/ml). The cells were incubated with gentle shaking at 37° C. for 5 min. The reaction was terminated by the addition of 40 ml ice-cold HBSS containing HSA (0.25 mg/ml). The cells were then removed from the supernatant fluid by centrifugation (225 g, 8 min). Unincorporated [^3 H]-arachidonic acid was completely removed by two more washes of HBSS containing 0.25 mg/mi HSA. The neutrophils were resuspended in fresh buffer, exposed to various concentrations of a CoA-IT inhibitor or its vehicle and incubated without stimulation for 2 hrs. […] The phospholipid subclasses were separated by TLC in benzene/hexane/ethyl ether (50:45:4, v/v), located by image analysis (Bioscan) and the amount of radioactivity in each class was determined by zonal scraping and liquid scintillation counting.

[3] = test system: mouse bone marrow-derived mast cells; assay: Assay (e): arachidonate content of cellular phospholipids; conditions: 24-48 hours in culture
Experimental: The following is the method for assessing the ability of a compound to alter arachidonate content of cellular phospholipids, which can be generalized for any desired cell. Specifically, mouse bone marrow-derived mast cells are removed from culture and provided with exogenous [^3 H]arachidonic acid for 30 minutes. The labeled arachidonic acid which had not been incorporated into the cells is then removed by washing the cells 2 times with an albumin-containing buffer. At that point, the cells are treated with various concentrations of CoA-IT inhibitors and then placed back in culture for 24-48 hours. The phospholipids are extracted by the method of Bligh and Dyer [Can. J. Biochem. Physiol. (1959) 37,911-917] and phospholipids separated by normal phase HPLC by the method of Chilton [Methods Enzymol. (1990)187, 157-166]. The radioactive and mole quantities of arachidonate in complex lipids are determined. At this point, cellular lipid extracts are treated with KOH (0.5M) to remove fatty acids from complex lipids (phospholipids) and the quantities of arachidonate in these extracts can then be determined by various methods, including gas chromatography and mass spectrometry (Chilton [Methods Enzymol. (1990)187, 157-166]).

IC50 [1]: > 30 µM
SMILES: O=C(O)c1ccccc1Oc1ccc(C(F)(F)F)cc1NS(=O)(=O)c1cc(C(F)(F)F)cc(C(F)(F)F)c1 [Example 1, 2-[2-[3,5-Bis(trifluoromethyl)phenylsulfonamido]-4-trifluoromethylphenoxy]benzoic acid]
blocking the movement of arachidonic acid into 1-ether phospholipids [2]: positive activity | decreasing the arachidonic content [3]: positive activity
